Assay results published in US20260007601A1, “IONIZABLE CATIONIC LIPID COMPOUND AND COMPOSITION FOR DELIVERING NUCLEIC ACID AND USE THEREOF” (BEIJING YOUCAREKECHUANG PHARMACEUTICAL TECHNOLOGY CO., LTD., priority 2023, published 2026).

Assays:
293T cells [1] = assay: Fluorescence detection of Fluc-mRNA (cell transfection efficiency of LNP formulations); type: cell-based; settings: for Relative light unit (RLU): LNP containing 0.3 μg Fluc-mRNA, 24 hours; for Multiples of values that equivalent to YK-201: RLU of YK-201 / RLU of the named lipid; for Multiples of values that equivalent to YK-202: RLU of YK-202 / RLU of the named lipid
Outline: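 293T cells at 10,000 per well, adhered overnight, then given LNPs carrying 0.3 μg Fluc-mRNA (cationic:neutral:structured:polymer-conjugated lipid 49:10:39.5:1.5 molar). After 24 h, luciferase signal read with luciferase kit reagents on an IVIS imaging system as transfection efficiency.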

293T cells [2] = assay: Cell survival rate assay (CCK-8); type: cell-based; settings: for Cell survival rate: LNP containing 1.5 μg Fluc-mRNA, 24 hours, CCK-8
Outline: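 293T cells seeded at 10,000 per well and grown overnight, then exposed for 24 h to LNPs (cationic/neutral/structured/PEG lipids 49:10:39.5:1.5) carrying 1.5 μg Fluc-mRNA, or Lipofectamine 3000. Viability read by CCK-8, 1 h incubation, absorbance at 450 nm.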

[3] = Particle size and polydispersity index (PDI) of nanolipid particles, dynamic light scattering; type: physicochemical; settings: LNP formulation prepared from the named cationic lipid, 25° C
Procedure: The particle size and polydispersity index (PDI) were determined by dynamic light scattering method using a Malvern laser particle size analyzer. 10 μL of liposome solution was diluted to 1 mL with RNase-free deionized water and added to a sample pool. Each sample was measured three times. The measurement conditions were: 90° scattering angle, 25° C.

[4] = Encapsulation rate, drug loading concentration and total RNA concentration detection (RiboGreen); type: physicochemical; settings: for Drug loading concentration / Encapsulation rate / Total RNA concentration: LNP formulation of the named lipid
female BALB/C mice = assay: Mouse in vivo imaging of Fluc-mRNA LNP formulations; parameters: average radiation intensity (mRNA expression): unit not given here; settings: for average radiation intensity (mRNA expression): 10 μg Fluc-mRNA LNP intramuscularly
Outline: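 Female BALB/C mice (4–6 weeks, 17–19 g) received LNP carrying 10 μg Fluc-mRNA intramuscularly. Imaging substrate given intraperitoneally at 6 h, 24 h, 48 h and 7 d; after 5 min free movement, average radiance read by IVIS Spectrum imaging.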

## CCCCCCCCCCOC(=O)CCCN(CCCCCC(=O)OCC(CCCCCCCC)CCCCCCCC)CCN(C)CCO [YK-207, 2-octyldecyl-6-(2-((2-(2-hydroxyethyl(methyl)amino)ethyl)(4-oxo-4-((decyloxy)butyl)amino) hexanoate]
293T cells [1]; Fluc-mRNA LNP
  RLU / cell transfection efficiency, times that of ALC-0315: 9 times
  RLU / cell transfection efficiency, times that of HHMA: 10 times
  RLU / cell transfection efficiency, times that of Lipofectamine 3000: 17 times
  RLU / cell transfection efficiency, times that of YK-009: 4 times
  RLU / cell transfection efficiency, times that of compound 21: 14 times
  RLU / cell transfection efficiency, times that of compound 23: 15 times
  cell transfection efficiency, times that of YK-221: 960.71 times
  fluorescence absorption value / cell transfection efficiency, times that of YK-220: 124.13 times
293T cells [1]
  Relative light unit (RLU): 20878758 RLU
  Multiples of values that equivalent to YK-201: 1.36
  Multiples of values that equivalent to YK-202: 1.43
293T cells [1]; RLU of YK-209 / RLU of the named lipid
  Multiples of values that equivalent to YK-209: 1.29
293T cells [2]
  Cell survival rate: 73.88%
293T cells [2]; difference of rates
  cell survival rate higher than that of ALC-0315: 23.92%
  cell survival rate higher than that of HHMA: 8.32%
  cell survival rate higher than that of Lipofectamine 3000: 50.83%
  cell survival rate higher than that of SM-102: 5.33%
  cell survival rate higher than that of compound 21: 4.86%
  cell survival rate higher than that of compound 23: 3.78%
[3]
  PDI: 18.9%
  Particle size: 192 nm
[4]
  drug loading concentration, times that of ALC-0315: 1.52 times
  drug loading concentration, times that of HHMA: 1.29 times
  drug loading concentration, times that of SM-102: 1.56 times
  drug loading concentration, times that of YK-009: 1.47 times
  drug loading concentration, times that of compound 21: 1.75 times
  drug loading concentration, times that of compound 23: 1.91 times
  total RNA concentration, times that of ALC-0315: 1.18 times
  total RNA concentration, times that of HHMA: 1.15 times
  total RNA concentration, times that of SM-102: 1.24 times
  total RNA concentration, times that of YK-009: 1.13 times
  total RNA concentration, times that of compound 21: 1.42 times
  total RNA concentration, times that of compound 23: 1.34 times
  Drug loading concentration: 39.60 µg/mL
  Encapsulation rate: 90.8%
  Total RNA concentration: 43.63 µg/mL
[4]; difference of rates
  encapsulation rate higher than that of ALC-0315: 28.00%
  encapsulation rate higher than that of HHMA: 30.30%
  encapsulation rate higher than that of SM-102: 28.50%
  encapsulation rate higher than that of YK-009: 27.80%
  encapsulation rate higher than that of compound 21: 33.00%
  encapsulation rate higher than that of compound 23: 35.60%
Female BALB/C mice; 6 h
  average radiation intensity (mRNA expression): 1974100
Female BALB/C mice; 24 h
  average radiation intensity (mRNA expression): 1523040
Female BALB/C mice; 48 h
  average radiation intensity (mRNA expression): 525800
Female BALB/C mice; 7 d
  average radiation intensity (mRNA expression): 22896
Female BALB/C mice; time point not stated
  mRNA expression level in mice can reach, times that of ALC-0315: 13 times
  mRNA expression level in mice can reach, times that of HHMA: 16 times
  mRNA expression level in mice can reach, times that of SM-102: 16 times
  mRNA expression level in mice can reach, times that of compound 21: 16 times
  mRNA expression level in mice can reach, times that of compound 23: 16 times

## CCCCCCC(CCCCCC)CCOC(=O)CCCCCCCN(CCO)CCCCCCCC(=O)OCCC(CCCCCC)CCCCCC [Compound 23, bis(3-hexylnonyl)8,8′-((2-hydroxyethyl)azadialkyl)dioctanoate, reference compound]
293T cells [1]
  Relative light unit (RLU): 1332014 RLU
  Multiples of values that equivalent to YK-201: 21.38
  Multiples of values that equivalent to YK-202: 22.49
293T cells [1]; RLU of the named lipid / RLU of SM-102, times that of SM-102
  Ratio relative to SM-102: 0.80
293T cells [2]
  Cell survival rate: 70.10%
[3]
  PDI: 8.6%
  Particle size: 138 nm
[4]
  Drug loading concentration: 20.7 µg/mL
  Encapsulation rate: 55.2%
  Total RNA concentration: 32.51 µg/mL
Female BALB/C mice; 6 h
  average radiation intensity (mRNA expression): 594050
Female BALB/C mice; 24 h
  average radiation intensity (mRNA expression): 110870
Female BALB/C mice; 48 h
  average radiation intensity (mRNA expression): 32074
Female BALB/C mice; 7 d
  average radiation intensity (mRNA expression): 5827
